Laboratory results published in patent US20230093861A1, “RAPAMYCIN ANALOGS AS MTOR INHIBITORS” (Revolution Medicines, Inc., priority 2017, published 2023).

What was measured:
[1] = test system: P-P70S6K (T389); assay: Cell based AlphaLISA assay, inhibition of P-P70S6K (T389) (mTORC1 substrate phosphorylation) in MDA-MB-468 cells; conditions: Homo sapiens, 4 h, AlphaLISA, two to four hours at 37° C., read-out: pIC50 for Inhibition of mTORC1 and mTORC2 Substrate Phosphorylation, P-P70S6K-(T389) (converted)
Method in brief: (§1)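 AlphaLISA SureFire Ultra read-out of P-4E-BP1 (T37/46), P-P70S6K (T389) and P-Akt (S473) in MDA-MB-468 cells after compound treatment; cells lysed in kit buffer. Alpha signal read in duplicate; IC50 from normalized concentration-response regression with control-based normalization.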

[2] = test system: P-4E-BP1 (T37/46); assay: Cell based AlphaLISA assay, inhibition of P-4E-BP1 (T37/46) (mTORC1 substrate phosphorylation) in MDA-MB-468 cells; conditions: Homo sapiens, MDA-MB-468, 4 h, AlphaLISA, two to four hours at 37° C., read-out: pIC50 for Inhibition of mTORC1 and mTORC2 Substrate Phosphorylation, P-4E-BP1-(T37/46) (converted)
Method in brief: as §1

[3] = test system: P-Akt (S473); assay: Cell based AlphaLISA assay, inhibition of P-Akt (S473) (mTORC2 substrate phosphorylation) in MDA-MB-468 cells; conditions: Homo sapiens, MDA-MB-468, 4 h, AlphaLISA, two to four hours at 37° C., read-out: pIC50 for Inhibition of mTORC1 and mTORC2 Substrate Phosphorylation, p-AKT 1/2/3 -(S473) (converted)
Method in brief: as §1

Structure (SMILES)	IC50 [1] [nM]	IC50 [2] [nM]	IC50 [3] [nM]
CO/N=C1/C[C@@H]([C@H](C)C[C@@H]2CC[C@H](n3cc(COC(=O)NCCOCCOCCOCCC(=O)NCCOCCOCCOCCC(=O)NCCCCn4nc(-c5ccc6oc(N)nc6c5)c5c(N)ncnc54)nn3)[C@H](OC)C2)OC(=O)[C@@H]2CCCCN2C(=O)C(=O)[C@]2(O)O[C@@H](CC[C@H]2C)C[C@H](OC)/C(C)=C/C=C/C=C/[C@@H](C)C[C@@H](C)C(=O)[C@H](OC)[C@H](O)/C(C)=C/[C@H]1C [Example 153]	1 to 10	31.6 to 1000	> 1000
CO[C@H]1C[C@@H]2CC[C@@H](C)[C@@](O)(O2)C(=O)C(=O)N2CCCC[C@H]2C(=O)O[C@H]([C@H](C)C[C@@H]2CC[C@@H](OCc3cccc(-c4cnc(N5CCN(Cc6cn(CCOCCOCCOCCC(=O)NCCCCn7nc(-c8ccc9oc(N)nc9c8)c8c(N)ncnc87)nn6)C(CO)C5)nc4)c3)[C@H](OC)C2)CC(=O)[C@H](C)/C=C(\C)[C@@H](O)[C@@H](OC)C(=O)[C@H](C)C[C@H](C)/C=C/C=C/C=C/1C (stereo partly drawn) [Example 25]	< 1	< 3.16	3.16 to 31.6
CO[C@H]1C[C@@H]2CC[C@@H](C)[C@@](O)(O2)C(=O)C(=O)N2CCCC[C@H]2C(=O)O[C@H]([C@H](C)C[C@@H]2CC[C@H](n3cc(COC(=O)NCCOCCOCCC(=O)NCc4cnc(N5CCN(c6ncc(C(=O)NCCCCn7nc(-c8ccc9oc(N)nc9c8)c8c(N)ncnc87)cn6)CC5)nc4)nn3)[C@H](OC)C2)CC(=O)[C@H](C)/C=C(\C)[C@@H](O)[C@@H](OC)C(=O)[C@H](C)C[C@H](C)/C=C/C=C/C=C/1C [Example 181]	< 1	< 3.16	3.16 to 31.6
CCO[C@@H]1C[C@@H]([C@H](C)C[C@@H]2CC[C@@H](O)[C@H](OC)C2)OC(=O)[C@@H]2CCCCN2C(=O)C(=O)[C@]2(O)O[C@@H](CC[C@H]2C)C[C@H](OC)/C(C)=C/C=C/C=C/[C@@H](C)C[C@@H](C)C(=NOCc2cn(CCOCCOCCOCCOCCOCCOCCOCCOCCC(=O)NCCCCn3nc(-c4ccc5oc(N)nc5c4)c4c(N)ncnc43)nn2)[C@H](OC)[C@H](O)/C(C)=C/[C@H]1C [Example 64]	< 1	3.16 to 31.6	31.6 to 1000
CO[C@H]1C[C@@H]2CC[C@@H](C)[C@@](O)(O2)C(=O)C(=O)N2CCCC[C@H]2C(=O)O[C@H]([C@H](C)C[C@@H]2CC[C@@H](OCCCCc3cn(CCOCCOCCOCCC(=O)NCCOCCOCCOCCC(=O)NCCCCn4nc(-c5cc6cc(O)ccc6[nH]5)c5c(N)ncnc54)nn3)[C@H](OC)C2)CC(=O)[C@H](C)/C=C(\C)[C@@H](O)[C@@H](OC)C(=O)[C@H](C)C[C@H](C)/C=C/C=C/C=C/1C [Example 199]	< 1	< 3.16	31.6 to 1000
CO[C@H]1C[C@@H]2CC[C@@H](C)[C@@](O)(O2)C(=O)C(=O)N2CCCC[C@H]2C(=O)O[C@H]([C@H](C)C[C@@H]2CC[C@H](n3cc(COC(=O)NCCOCCOCCOCCC(=O)NCCOCCOCCC(=O)NCCCCn4nc(-c5ccc6oc(N)nc6c5)c5c(N)ncnc54)nn3)[C@H](OC)C2)CC(=O)[C@H](C)/C=C(\C)[C@@H](O)[C@@H](OC)C(=O)[C@H](C)C[C@H](C)/C=C/C=C/C=C/1C [Example 120]	1 to 10	3.16 to 31.6	31.6 to 1000
CO[C@H]1C[C@@H]2CC[C@@H](C)[C@@](O)(O2)C(=O)C(=O)N2CCCC[C@H]2C(=O)O[C@H]([C@H](C)C[C@@H]2CC[C@H](n3cc(COC(=O)NCCOCCOCCOCCC(=O)NCc4cnc(N5CCN(c6ncc(C(=O)NCCCCn7nc(-c8cc9cc(O)ccc9[nH]8)c8c(N)ncnc87)cn6)CC5)nc4)nn3)[C@H](OC)C2)CC(=O)[C@H](C)/C=C(\C)[C@@H](O)[C@@H](OC)C(=O)[C@H](C)C[C@H](C)/C=C/C=C/C=C/1C [Example 184]	< 1	< 3.16	3.16 to 31.6
CO[C@H]1C[C@@H]2CC[C@@H](C)[C@@](O)(O2)C(=O)C(=O)N2CCCC[C@H]2C(=O)O[C@H]([C@H](C)C[C@@H]2CC[C@H](n3cc(COC(=O)NCCOCCOCCC(=O)NCc4cnc(N5CCN(c6ncc(C(=O)NCCCCn7nc(-c8cc9cc(O)ccc9[nH]8)c8c(N)ncnc87)cn6)CC5)nc4)nn3)[C@H](OC)C2)CC(=O)[C@H](C)/C=C(\C)[C@@H](O)[C@@H](OC)C(=O)[C@H](C)C[C@H](C)/C=C/C=C/C=C/1C [Example 182]	< 1	> 1000	> 1000
CO[C@H]1C[C@@H]2CC[C@@H](C)[C@@](O)(O2)C(=O)C(=O)N2CCCC[C@H]2C(=O)O[C@H]([C@H](C)C[C@@H]2CC[C@@H](O)[C@H](OC)C2)C[C@@H](OC)[C@H](C)/C=C(\C)[C@@H](O)[C@@H](OC)C(=NOCc2cn(CCOCCOCCOCCOCCOCCOCCC(=O)NCCCCn3nc(-c4ccc5oc(N)nc5c4)c4c(N)ncnc43)nn2)[C@H](C)C[C@H](C)/C=C/C=C/C=C/1C [Example 13]	1 to 10	3.16 to 31.6	31.6 to 1000
CO[C@H]1C[C@@H]2CC[C@@H](C)[C@@](O)(O2)C(=O)C(=O)N2CCCC[C@H]2C(=O)O[C@H]([C@H](C)C[C@@H]2CC[C@@H](OCCCCc3cn(CCOCCOCCOCCOCCOCCOCCOCCOCCOCCOCCOCCOCCOCCOCCOCCOCCOCCOCCOCCOCCOCCOCCOCCOCCC(=O)NCCCCn4nc(-c5ccc6oc(N)nc6c5)c5c(N)ncnc54)nn3)[C@H](OC)C2)CC(=O)[C@H](C)/C=C(\C)[C@@H](O)[C@@H](OC)C(=O)[C@H](C)C[C@H](C)/C=C/C=C/C=C/1C [Example 97]	1 to 10	3.16 to 31.6	3.16 to 31.6
CO[C@H]1C[C@@H]2CC[C@@H](C)[C@@](O)(O2)C(=O)C(=O)N2CCCC[C@H]2C(=O)O[C@H]([C@H](C)C[C@@H]2CC[C@H](n3cc(COC(=O)NCCOCCOCCOCCC(=O)NCCOCCOCCOCCC(=O)NCCCCn4nc(-c5cc6cc(O)ccc6[nH]5)c5c(N)ncnc54)nn3)[C@H](OC)C2)C[C@@H](OC)[C@H](C)/C=C(\C)[C@@H](O)[C@@H](OC)C(=O)[C@H](C)C[C@H](C)/C=C/C=C/C=C/1C [Example 146]	1 to 10	> 1000	> 1000
